# Source: ChEMBL document CHEMBL1127127, “Avermectin B1-8,9-oxide: reactivity, bioactivity, and stereochemistry” (1993)
# Test system: Artemia
# Test: Tested for bioactivity against Brine Shrimp
# Type: functional
row,Compound,IC100 [ng/mL]
1,CC[C@H](C)[C@H]1O[C@]2(C=C[C@@H]1C)C[C@@H]1C[C@@H](C/C=C(\C)[C@@H](O[C@@H]3C[C@@H](OC)[C@H](O[C@@H]4C[C@@H](OC)[C@H](O)[C@@H](C)O4)[C@@H](C)O3)[C@@H](C)/C=C/C(O)[C@]3(O)COC4[C@H](O)C(C)=C[C@@H](C(=O)O1)[C@@]43O)O2 (stereo not given in full),>55000
2,CC[C@H](C)[C@H]1O[C@]2(C=C[C@@H]1C)C[C@@H]1C[C@@H](C/C=C(\C)[C@@H](O[C@@H]3C[C@@H](OC)[C@H](O[C@@H]4C[C@@H](OC)[C@H](O)[C@@H](C)O4)[C@@H](C)O3)[C@@H](C)/C=C/C(Sc3ccccc3)[C@]3(O)COC4[C@H](O)C(C)=C[C@@H](C(=O)O1)[C@@]43O)O2 (stereo not given in full),>55000
3,CC[C@H](C)[C@H]1O[C@]2(C=C[C@@H]1C)C[C@@H]1C[C@@H](C/C=C(\C)[C@@H](O[C@@H]3C[C@@H](OC)[C@H](O[C@@H]4C[C@@H](OC)[C@H](O)[C@@H](C)O4)[C@@H](C)O3)[C@@H](C)/C=C/[C@@H]3O[C@]34COC3[C@H](O)C(C)=C[C@@H](C(=O)O1)[C@@]34O)O2 (stereo not given in full),650
4,CC[C@H](C)[C@H]1O[C@]2(C=C[C@@H]1C)C[C@@H]1C[C@@H](C/C=C(\C)[C@@H](O[C@@H]3C[C@@H](OC)[C@H](O[C@@H]4C[C@@H](OC)[C@H](O)[C@@H](C)O4)[C@@H](C)O3)[C@@H](C)/C=C/C=C3\COC4[C@H](O)C(C)=C[C@@H](C(=O)O1)[C@]34O)O2 (stereo not given in full),335
5,CC[C@H](C)[C@H]1O[C@]2(CC[C@@H]1C)C[C@@H]1C[C@@H](C/C=C(\C)[C@@H](O[C@@H]3C[C@@H](OC)[C@H](O[C@@H]4C[C@@H](OC)[C@H](O)[C@@H](C)O4)[C@@H](C)O3)[C@@H](C)/C=C/C=C3\COC4[C@H](O)C(C)=C[C@@H](C(=O)O1)[C@]34O)O2 (stereo not given in full),430
